Measured values from patent publication US20180071280A1, “MODULATORS OF CELL DEATH PROCESSES” (URIFER LTD., priority 2015, published 2018).
Entries after “also recorded” stand apart in the source; their conditions may differ. Structures can show the parent of a compound that is named as a salt. Where two headings read alike, the source gives them in different places.

Experiments:
MAPK8 (JNK1) = MAPK8 (JNK1) (Homo sapiens, UniProt P45983); assay: Kinase panel assay, MAPK8; type: biochemical; conditions: above threshold
MAPK8 (JNK1), sequence (P45983 whole entry): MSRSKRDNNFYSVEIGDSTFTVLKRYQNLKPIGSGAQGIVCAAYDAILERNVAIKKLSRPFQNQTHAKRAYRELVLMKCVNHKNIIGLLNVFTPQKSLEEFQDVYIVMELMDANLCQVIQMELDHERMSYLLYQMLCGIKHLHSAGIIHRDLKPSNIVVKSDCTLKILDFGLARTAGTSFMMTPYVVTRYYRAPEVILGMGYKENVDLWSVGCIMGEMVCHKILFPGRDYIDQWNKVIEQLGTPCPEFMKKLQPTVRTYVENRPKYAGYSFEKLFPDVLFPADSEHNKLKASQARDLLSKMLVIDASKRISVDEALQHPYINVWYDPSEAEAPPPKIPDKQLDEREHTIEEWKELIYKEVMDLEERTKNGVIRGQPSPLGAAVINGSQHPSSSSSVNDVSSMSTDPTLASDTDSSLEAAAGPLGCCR
Procedure: (§1) Kinase panel assays were performed using the FRET-based Z′-LYTE, Lantha Screen and Adapta enzymatic kinase assay systems (Life Technologies, Carlsbad, Calif.), which were carried out using the SelectScreen Kinase Profiling Service (Life Technologies). The standard reaction contained 2 μM peptide substrate, ATP at the optimal assay concentration, 50 mM HEPES (pH 7.5), 0.01% Brij-35, 10 mM MgCl2, 1 mM EGTA, and the tested kinase. Each kinase was checked for its activity in duplicate data points (n=2) and was assayed following the detailed procedures outlined in the SelectScreen service. Percent inhibition or ATP displacement (For Lantha screen) represent a ratio of phosphorylated/ATP bound product formed in the presence of the compound compared with phosphorylated/ATP bound product formed in reactions containing 1% DMSO.
(§2) Kinome technique was used for monitoring phosphorylation events and phosphorylation targets of 0260-Fer interaction, using peptide arrays for human targets and phosphorylation-specific antibodies. Construction of peptide arrays relied on information from phosphorylation databases. The following proteins were determined as significant above the threshold of 40% kinase activity inhibition or ATP displacement to the Kinase domain site.

Fer = Fer (Homo sapiens, UniProt P16591); assay: Immunoprecipitation of Fer from 0260 treated SW620 CC cells; type: binding; parameters: endogenous in cells; host or cells: SW620 colon carcinoma cells
Fer, sequence (P16591 whole entry): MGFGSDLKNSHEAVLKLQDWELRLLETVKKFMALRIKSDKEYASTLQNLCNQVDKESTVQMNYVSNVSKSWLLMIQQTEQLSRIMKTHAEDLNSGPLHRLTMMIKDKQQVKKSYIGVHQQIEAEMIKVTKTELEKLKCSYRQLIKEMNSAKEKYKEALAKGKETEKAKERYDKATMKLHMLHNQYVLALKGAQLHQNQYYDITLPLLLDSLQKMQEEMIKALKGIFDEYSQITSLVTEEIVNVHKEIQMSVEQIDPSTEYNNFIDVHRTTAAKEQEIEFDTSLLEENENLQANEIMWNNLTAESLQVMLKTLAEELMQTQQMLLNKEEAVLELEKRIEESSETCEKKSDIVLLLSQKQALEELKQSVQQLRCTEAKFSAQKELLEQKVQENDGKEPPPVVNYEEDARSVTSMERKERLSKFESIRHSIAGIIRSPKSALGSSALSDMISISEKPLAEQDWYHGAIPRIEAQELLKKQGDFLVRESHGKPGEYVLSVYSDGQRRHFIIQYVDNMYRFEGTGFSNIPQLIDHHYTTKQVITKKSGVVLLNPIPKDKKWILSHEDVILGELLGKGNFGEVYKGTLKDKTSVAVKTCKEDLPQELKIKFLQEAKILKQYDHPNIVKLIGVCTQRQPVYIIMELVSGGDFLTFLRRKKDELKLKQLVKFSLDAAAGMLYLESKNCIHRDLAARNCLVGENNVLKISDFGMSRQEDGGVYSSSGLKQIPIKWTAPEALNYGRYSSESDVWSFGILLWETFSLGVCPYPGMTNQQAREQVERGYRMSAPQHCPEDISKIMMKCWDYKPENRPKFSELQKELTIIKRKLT
Procedure: Protein lysates (1 mg) were prepared from tissues of adult mice according to previously described protocol, including incubation with Protein A Sepharose (GE Healthcare) to avoid nonspecific binding. Protein lysates were incubated with specific antibodies diluted 1:100 overnight at 4° C. Antigen-antibody complexes were precipitated with Protein A Sepharose, washed twice in PBS and eluted in Sample Buffer (2% SDS, 1% DTT 0.02% bromophenol blue 10% glycerol, 12.5 mM EDTA, 50 mM Tris-HCl pH 6.8) at room temperature for 10 min and at 100° C. for 8 min. Eluates were separated on SDS-PAGE and visualized by WB using specific antibodies.
To examine the effect of 0260 micellar formulation on Fer in malignant cells, the kinase was immuno-precipitated from untreated and from 0260 treated SW620 CC cells.

MDA cells = assay: Autophagy in MDA cells (LC3 immuno-staining); type: cell-based, human; conditions: 2 μM
Procedure: (§3) Cells were fixed with 4% paraformaldehyde (30 min) and incubated with Permeabilization Solution containing 0.1% Triton X-100 (Sigma-Aldrich, Israel) in PBS at room temperature for 1 h. Nonspecific binding was blocked with PBS containing 10% fetal bovine serum for 1 h at room temperature. Cells were incubated with specific antibodies diluted 1:100 overnight at 4° C. Cells were washed (5 min) in PBS containing 0.2% Tween-20 (Sigma-Aldrich, Israel) to remove non-specific binding. Bound primary antibodies were detected by Alexa Fluor® 488 goat anti-mouse IgG antibody or Alexa Fluor® 594 goat anti-rabbit IgG antibody (Molecular Probes, Invitrogen, U.K.). Nuclei were visualized by incubation with Hoechst 33342 solution for 10 min (1:500). Nonspecific staining, as determined by binding to the secondary antibody only, was negligible. The immunostained slides were examined under the fluorescence microscope AxioimagerZ1 (Zeiss, Germany) or confocal fluorescence microscope (Olympus-FV1000).

SW620 CC cells = assay: MultiTox-Fluor cytotoxicity assay in SW620 CC cells; type: cell-based, human; conditions: for cell death: 2 μM; for EC50: Homo sapiens, SW-620, read-out: EC50 (cell death)
Procedure: (§4) Cell lines (HCT116, ht29, Rko, Hep3B, SW48, SW620, MDA-MB-231, PANC-1, su.86.86, Hfb) were obtained from the American Type Culture Collection (ATCC). Cell type authentication was carried out by microscope and DNA profiles using short tandem repeat analysis. Cells were grown in Minimum Essential Medium (MEM) containing 10% heat-inactivated Fetal Bovine Serum (FBS) or in Dulbecco's Modified Eagle's Medium (DMEM) containing 10% FBS, where specified, at 37° C. with 5% CO2. In general, the in-vitro experiments were carried out with 2. μM 0260 added into the growth medium. Dose response experiments included increasing 0260 concentrations. Cell death levels were determined using the MultiTox-Fluor Multiplex Cytotoxicity Assay (G9201, Promega, USA). In brief, 10,000 cells were seeded in black bottom 96 wells plate and were allowed to attach to the plate bottom for 16 h before the administration of various 0260 concentration in each well. Cell death levels were determined according to the manufacturer's protocol.
(§5) Cells death level was determined using the MultiTox-Fluor Multiplex Cytotoxicity Assay (G9201, Promega, USA) according to the manufacturer's protocol.

[1] = test system: normal human fibroblasts (Hfb); assay: MultiTox-Fluor cytotoxicity assay in normal human fibroblasts; type: cell-based
Procedure: as §4, §5

CC cells = assay: Autophagy in CC cells (TEM, LC3 immuno-staining, WB); type: cell-based, human
Procedure: WB analyses were carried out as previously described before. In brief, cells were lysed in RIPA buffer mixed with protease inhibitors and separated on SDS-PAGE gel, transferred to PVDF membrane treated with 5% skim milk to exclude non-specific background and incubated with a primary antibody over-night. The membrane was incubated for 1 h with a secondary antibody conjugated to Horseradish Peroxidase (HRP). The protein-antibody complex was visualized using the SuperSignal West Pico Chemiluminescent Substrate (Thermo scientific, USA).
as §3
Cells were grown in MEM or DMEM, washed twice with PBS and fixed for 5 minutes in Karnovsky fixative (2.5% glutaraldehyde, 2.5% paraformaldehyde in cacodylate buffer pH 7.4) on the tissue culture plate. Cells were then harvested, and transferred to 1.5 ml tube for further 1 h fixation at room temperature. The cells were then stored O.N at 4C° after which the samples were washed in 0.1 M cacodylate buffer and post-fixed with 1% OsO4 in 0.1 M sodium cacodylate buffer (Sigma-Aldrich, Israel) for 1 h. […]

MINK1 = MINK1 (Homo sapiens, UniProt Q8N4C8); assay: Kinase panel assay, MINK1; type: biochemical; conditions: above threshold
MINK1, sequence (Q8N4C8 1-320 limits assumed): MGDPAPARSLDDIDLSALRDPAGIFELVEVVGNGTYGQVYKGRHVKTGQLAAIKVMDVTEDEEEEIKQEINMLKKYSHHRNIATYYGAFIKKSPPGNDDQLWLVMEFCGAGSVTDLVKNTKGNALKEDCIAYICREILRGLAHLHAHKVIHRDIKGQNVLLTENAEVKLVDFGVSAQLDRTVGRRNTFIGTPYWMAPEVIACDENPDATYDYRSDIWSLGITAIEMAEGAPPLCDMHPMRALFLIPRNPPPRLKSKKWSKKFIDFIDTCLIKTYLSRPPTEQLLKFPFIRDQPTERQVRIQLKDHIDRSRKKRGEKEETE
Procedure: as §1, §2

SW620 cells = assay: TEM analysis of mitochondria in SW620 cells; type: cell-based, human
Procedure: Cells were grown in MEM or DMEM, washed twice with PBS and fixed for 5 minutes in Karnovsky fixative (2.5% glutaraldehyde, 2.5% paraformaldehyde in cacodylate buffer pH 7.4) on the tissue culture plate. Cells were then harvested, and transferred to 1.5 ml tube for further 1 h fixation at room temperature. The cells were then stored O.N at 4C° after which the samples were washed in 0.1 M cacodylate buffer and post-fixed with 1% OsO4 in 0.1 M sodium cacodylate buffer (Sigma-Aldrich, Israel) for 1 h. Samples were then dehydrated in alcohol and propylene oxide followed by embedding in Agar Mix. Thin sections (60 nm) were cut, stained with uranyl acetate and lead citrate, and observed in a FEI Tecnai transmission electron microscope.

[2] = target: FLT3 (FMS-like tyrosine kinase 3) (Homo sapiens, UniProt P36888); assay: Kinase panel assay, FLT3; type: biochemical; conditions: above threshold
FLT3 (FMS-like tyrosine kinase 3), sequence (P36888 27-993): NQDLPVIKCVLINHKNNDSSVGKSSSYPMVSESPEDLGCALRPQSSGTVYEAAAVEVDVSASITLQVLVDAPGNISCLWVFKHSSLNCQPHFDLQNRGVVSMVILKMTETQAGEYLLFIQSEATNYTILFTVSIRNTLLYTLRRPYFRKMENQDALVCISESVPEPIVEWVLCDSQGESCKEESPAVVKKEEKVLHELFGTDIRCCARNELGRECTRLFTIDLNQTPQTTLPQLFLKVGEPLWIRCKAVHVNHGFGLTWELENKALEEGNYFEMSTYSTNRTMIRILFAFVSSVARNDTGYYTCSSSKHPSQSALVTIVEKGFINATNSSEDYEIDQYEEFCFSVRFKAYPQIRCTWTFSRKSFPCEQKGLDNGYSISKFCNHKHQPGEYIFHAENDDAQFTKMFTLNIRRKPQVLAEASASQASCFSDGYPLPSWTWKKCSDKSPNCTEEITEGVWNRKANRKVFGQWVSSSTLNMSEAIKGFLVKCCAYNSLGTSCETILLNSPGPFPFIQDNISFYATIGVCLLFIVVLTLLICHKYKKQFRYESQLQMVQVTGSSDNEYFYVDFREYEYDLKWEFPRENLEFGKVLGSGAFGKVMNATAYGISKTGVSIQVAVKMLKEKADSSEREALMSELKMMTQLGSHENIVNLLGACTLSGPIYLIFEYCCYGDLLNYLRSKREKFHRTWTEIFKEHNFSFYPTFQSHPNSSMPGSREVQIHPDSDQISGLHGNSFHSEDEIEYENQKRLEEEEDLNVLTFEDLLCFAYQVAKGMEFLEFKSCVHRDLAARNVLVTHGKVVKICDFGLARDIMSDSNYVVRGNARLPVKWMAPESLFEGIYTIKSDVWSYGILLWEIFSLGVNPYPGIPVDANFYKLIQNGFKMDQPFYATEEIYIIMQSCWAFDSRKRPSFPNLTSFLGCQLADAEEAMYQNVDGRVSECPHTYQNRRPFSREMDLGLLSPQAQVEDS
Procedure: as §1, §2

Compound: CC(C)c1ccc(-c2cn3nc(N4CCC(CN5CCN(C)CC5)CC4)sc3n2)cc1 [compound 0260, tartarate salt of 6-(4-isopropyl-phenyl)-2-{4-[(4-methyl-piperazin-1-yl)methyl]piperidin-1-yl}-imidazo [2,1-b][1,3,4]thiadiazole]
- kinase activity inhibition or ATP displacement (MAPK8 (JNK1)): > 40%
- IP of Fer by antibodies toward the N-terminal tail (Fer): did not disable the IP of Fer
- autophagy (LC3 immuno-staining) (MDA cells): induction of autophagy was also observed
- cell death (SW620 CC cells; 24 h, metastatic CC (SW620), 1 gr/l glucose): 100%
- cell death (SW620 CC cells; 72 h, high glucose concentration): 100%
- EC50 (SW620 CC cells; SW620, 4.5 gr/1 glucose (DMEM)): 5100 nM
- EC50 (SW620 CC cells; SW620, 24 h, micellar formulation, 1 gr/l glucose (MEM)): 400 nM
- EC50 (SW620 CC cells; SW620, 48 h, micellar formulation): 300 nM
- death at the highest dose (SW620 CC cells; SW620, 4.5 gr/1 glucose (DMEM)): 50%
- cell death / cytotoxic effect in normal fibroblasts ([1]; 24 h and 48 h, same conditions as SW620): no death was seen; also recorded: Almost no cytotoxic effect
- sensitivity of normal cells lower than SW620 ([1]; Hfb 72 h vs SW620): 50 fold
- EC50 ([1]; Homo sapiens, Fibroblast, Hfb, 0-20 μM, 72 h): 20000 nM
- autophagy / autophagosomes (CC cells; TEM and LC3 immuno-staining): autophagy was induced and autophagosomes accumulated
- level of LC3II (CC cells; WB): relative increase
- kinase activity inhibition or ATP displacement (MINK1): > 40%
- mitochondria morphology (TEM) (SW620 cells; 16 h): deformation and loss of the normal elongated shape of mitochondria
- mitochondria morphology (TEM) (SW620 cells; 24 h): the mitochondria underwent lysis
- mitochondria morphology (TEM) (SW620 cells; 24 h, high glucose conditions): mitochondrial damage was still observed
- kinase activity inhibition or ATP displacement [2]: > 40%
